One test addresses T1, human glucocorticoid receptor (hGR) (Homo sapiens, UniProt P04150).
T1 construct: made in house; host or cells: Sf21 insect cells infected with baculovirus hGR, OR IM9 lymphoblast cell line (endogenous hGR)
T1 sequence (P04150 1-777): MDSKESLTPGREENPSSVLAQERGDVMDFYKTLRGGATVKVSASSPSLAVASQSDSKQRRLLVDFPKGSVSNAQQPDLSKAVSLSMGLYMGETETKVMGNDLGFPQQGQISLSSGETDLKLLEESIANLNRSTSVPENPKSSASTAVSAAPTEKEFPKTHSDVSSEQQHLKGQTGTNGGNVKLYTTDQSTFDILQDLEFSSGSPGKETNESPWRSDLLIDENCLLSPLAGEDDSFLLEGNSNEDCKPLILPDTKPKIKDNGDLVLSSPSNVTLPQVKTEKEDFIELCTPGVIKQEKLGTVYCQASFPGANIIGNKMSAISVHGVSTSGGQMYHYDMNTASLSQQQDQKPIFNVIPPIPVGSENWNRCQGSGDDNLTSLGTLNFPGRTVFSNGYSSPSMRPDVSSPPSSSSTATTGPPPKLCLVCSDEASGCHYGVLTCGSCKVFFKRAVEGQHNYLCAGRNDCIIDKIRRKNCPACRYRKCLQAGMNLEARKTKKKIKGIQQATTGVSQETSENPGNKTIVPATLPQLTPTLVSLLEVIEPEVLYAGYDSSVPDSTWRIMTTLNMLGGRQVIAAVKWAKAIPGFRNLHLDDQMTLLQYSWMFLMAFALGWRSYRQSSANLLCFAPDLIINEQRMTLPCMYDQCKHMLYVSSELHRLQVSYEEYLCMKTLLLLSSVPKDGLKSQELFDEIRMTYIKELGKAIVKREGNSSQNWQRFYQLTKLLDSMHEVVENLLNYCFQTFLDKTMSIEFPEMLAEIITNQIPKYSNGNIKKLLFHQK
The test is described as follows: human glucocorticoid receptor binding assay (displacement of 3(H) Triamcinolone acetonide).
Conditions: not given
As for the experimental part: A human glucocorticoid receptor binding assay was carried out to determine the extent to which the compounds of this invention have the ability to bind to human glucocorticoid receptors. This binding ability may be indicative of the antiinflammatory activity of the compound. The test was carried out as follows.
Human glucocorticoid receptors were prepared from either insect cells (Sf21) infected with baculovirus hGR or from a lymphoblast cell line which expresses high levels of endogenous hGR (IM9). The receptor binding reactions, with or without test compounds, were set up in 96-well microtiter plates which were previously siliconized with SIGMACOTE™, a chlorinated organopolysiloxane in heptane. The binding components, 3(H) Triamcinolone acetonide (TAA), glycerol/molybdate-containing buffer and unlabeled compounds were added to the wells using a combination of BIOMEK laboratory automation system and repeat pipettes. After four hours of incubation, the samples were precipitated with polyethylene glycol and filtered through Whatman GF/F paper using a TOMTEK cell harvester. The filter mate with 96 samples were bound to a solid-phase scintillant and directly counted in a BETAPLATE counter. […] The activity of test compounds to displace 3(H) TAA binding to hGR is also expressed as percent inhibition at 1 μM.
Broadly, the IC50 is the concentration at which inhibition is half-maximal. Consider `O=C(Cc1ccccc1Cl)NCC(c1ccccc1)C(c1ccc(F)cc1)c1ccc(F)cc1` (centres unmarked) [Compound 16], for which the concentration for half-maximal inhibition (IC50) is 45 nM.
For the compound `COc1ccccc1CCC(=O)NCC(c1ccccc1)C(c1ccc(F)cc1)c1ccc(F)cc1` (centres unmarked) [Compound 23], the 50% inhibitory concentration (IC50) was 22 nM.

The test is the same for the next values; noted with them: concentration not given.
Regarding `COc1ccccc1CC(=O)NCC(c1ccccc1)C(c1ccccc1)c1ccccc1` (centres unmarked) [Compound 5], the “hGR, value given as %” value came to 62%.
The same measure, in the same setting: for `Cc1ccc(C(=O)NCC(c2ccccc2)C2c3ccccc3-c3ccccc32)s1` (centres unmarked) [Compound 72] the value was 33%.

Another test concerns oxazolone-induced ear swelling (MOCH) in albino male CD-1 mice. The test is described as follows: mouse oxazolone-induced contact hypersensitization (MOCH) ear swelling. Format: in vivo. The arrangement: % Inhibition MOCH: concentration or dose not given beside the values. To be noted: mouse, in vivo. How it is done:
Several triphenylpropanamide compounds of this invention, having varying affinities for the human glucocorticoid receptor, were tested for topical antiinflammatory activity in mouse ear inflammation models. […] Compounds having receptor affinities closer to hydrocortisone were as nearly active as hydrocortisone in suppressing mouse oxazolone-induced contact hypersensitization (MOCH) and phorbol ester-induced ear edema. The in vivo studies of this example were conducted as follows.
In determining the MOCH using the compounds of this invention, albino male CD-1 mice, 7-9 weeks old were induced on the shaved abdomen with 50 μl of 3% oxazolone in acetone/corn oil (Day 0). On Day 5, a 20 μl volume of 2% oxazolone in acetone was applied to the dorsal left ear of the mouse . Compounds (made in ethanol/propylene glycol, 70:30) were applied to the left ear in 20 μl volume, one hour after oxazolone challenge. The right ear was not treated. The mice were sacrificed by carbon dioxide inhalation 24 hours after oxazolone challenge, the left and right ears were removed and a 7 mm biopsy was removed from each ear and weighed. The difference in biopsy weights between the right and left ears was calculated. Antiinflammatory effects of compounds were evident as an inhibition of the increase in ear weight.
Consider `O=C(Cc1ccc(F)cc1F)NCC(c1ccc2c(c1)OCO2)C(c1ccccc1)c1ccccc1` (centres unmarked) [Compound 111], for which the “% Inhibition MOCH” value came to 60%.
Still for that read-out and setting: in the case of `Cc1ccc(C(=O)NCC(c2ccc3c(c2)OCO3)C(c2ccccc2)c2ccccc2)cc1[N+](=O)[O-]` (centres unmarked) [Compound 122] it was 33%.
For `O=C(Cc1ccccc1Cl)NCC(c1ccc(C(F)(F)F)cc1)C(c1ccccc1)c1ccccc1` (centres unmarked) [Compound 146], the “% Inhibition MOCH” value stood at 39%.
For the compound `O=C(NCC(c1ccc2c(c1)OCO2)C(c1ccccc1)c1ccccc1)c1cc(C(F)(F)F)cc(C(F)(F)F)c1` (centres unmarked) [Compound 120], the “% Inhibition MOCH” value came to 27%.
On the same count and under the same terms, for `O=C(NCC(c1ccc(C(F)(F)F)cc1)C(c1ccccc1)c1ccccc1)c1ccc(Cl)cc1Cl` (centres unmarked) [Compound 139] the value was 42%; for `COc1ccccc1CC(=O)NCC(c1ccc2c(c1)OCO2)C(c1ccccc1)c1ccccc1` (centres unmarked) [Compound 107], 28%; for `O=C(Cc1ccccc1)NCC(c1ccc(C(F)(F)F)cc1)C(c1ccccc1)c1ccccc1` (centres unmarked) [Compound 141], 66%.
Take `O=C(NCC(c1ccc2c(c1)OCO2)C(c1ccccc1)c1ccccc1)c1ccc(F)cc1F` (centres unmarked) [Compound 127]: the “% Inhibition MOCH” value is recorded as 61%.
The same measure, in the same setting: in the case of `O=C(NCC(c1ccc(C(F)(F)F)cc1)C(c1ccccc1)c1ccccc1)c1ccccc1Cl` (centres unmarked) [Compound 137] it was 45%; in that of `CCCCOc1ccc(CC(=O)NCC(c2ccc3c(c2)OCO3)C(c2ccccc2)c2ccccc2)cc1` (centres unmarked) [Compound 106], 52%; in that of `Cc1cccc(CC(=O)NCC(c2ccc(C(F)(F)F)cc2)C(c2ccccc2)c2ccccc2)c1` (centres unmarked) [Compound 140], 57%.
In the case of `O=C(CCc1ccccc1)NCC(c1ccc2c(c1)OCO2)C(c1ccccc1)c1ccccc1` (centres unmarked) [Compound 124], the “% Inhibition MOCH” value turned out to be 35%.
Same read-out and setting: in the case of `COc1cc(CC(=O)NCC(c2ccc3c(c2)OCO3)C(c2ccccc2)c2ccccc2)cc(OC)c1` (centres unmarked) [Compound 108] it was 38%.
Same read-out and setting: for `N#Cc1cccc(C(=O)NCC(c2ccc3c(c2)OCO3)C(c2ccccc2)c2ccccc2)c1` (centres unmarked) [Compound 123] the value was 51%; for `O=C(NCC(c1ccc2c(c1)OCO2)C(c1ccccc1)c1ccccc1)c1ccc(F)cc1` (centres unmarked) [Compound 128], 54%; for `O=C(NCC(c1ccc2c(c1)OCO2)C(c1ccccc1)c1ccccc1)c1cccs1` (centres unmarked) [Compound 116], 62%.
Same read-out and setting: for `CSc1ccc(CC(=O)NCC(c2ccc(C(F)(F)F)cc2)C(c2ccccc2)c2ccccc2)cc1` (centres unmarked) [Compound 143] the value was 19%; for `O=C(Cc1cccc(F)c1)NCC(c1ccc2c(c1)OCO2)C(c1ccccc1)c1ccccc1` (centres unmarked) [Compound 110], 20%; for `O=C(Cc1cccs1)NCC(c1ccc2c(c1)OCO2)C(c1ccccc1)c1ccccc1` (centres unmarked) [Compound 99], 35%.
As for `O=C(Cc1ccccn1)NCC(c1ccc2c(c1)OCO2)C(c1ccccc1)c1ccccc1` (centres unmarked) [Compound 102], the “% Inhibition MOCH” value turned out to be 51%.
The same measure, in the same setting: for `Cc1ccc(C(=O)NCC(c2ccc3c(c2)OCO3)C(c2ccccc2)c2ccccc2)cc1` (centres unmarked) [Compound 126] the value was 46%.
On the same count and under the same terms, for `COc1ccccc1CC(=O)NCC(c1ccc(C(F)(F)F)cc1)C(c1ccccc1)c1ccccc1` (centres unmarked) [Compound 148] the value was 42%; for `O=C(Cc1cccc(C(F)(F)F)c1)NCC(c1ccc2c(c1)OCO2)C(c1ccccc1)c1ccccc1` (centres unmarked) [Compound 103], 37%; for `O=C(CSc1ccccc1)NCC(c1ccc2c(c1)OCO2)C(c1ccccc1)c1ccccc1` (centres unmarked) [Compound 114], 41%.
Same read-out and setting: for `Cc1c(CC(=O)NCC(c2ccc3c(c2)OCO3)C(c2ccccc2)c2ccccc2)sc2ccc(Cl)cc12` (centres unmarked) [Compound 100] the value was 18%; for `O=C(Cc1ccc(F)cc1F)NCC(c1ccc(C(F)(F)F)cc1)C(c1ccccc1)c1ccccc1` (centres unmarked) [Compound 147], 55%; for `O=C(Cc1ccc(Cl)c(Cl)c1)NCC(c1ccc(C(F)(F)F)cc1)C(c1ccccc1)c1ccccc1` (centres unmarked) [Compound 138], 33%.
For the compound `COc1ccccc1C(=O)NCC(c1ccc2c(c1)OCO2)C(c1ccccc1)c1ccccc1` (centres unmarked) [Compound 118], the “% Inhibition MOCH” value is on record as 38%.
Regarding `O=C(NCC(c1ccc2c(c1)OCO2)C(c1ccccc1)c1ccccc1)c1cc2ccccc2[nH]1` (centres unmarked) [Compound 119], the “% Inhibition MOCH” value worked out at 31%.
Same read-out and setting: for `O=C(NCC(c1ccc2c(c1)OCO2)C(c1ccccc1)c1ccccc1)c1ccccc1` (centres unmarked) [Compound 117] the value was 28%; for `O=C(Cc1ccccc1)NCC(c1ccc2c(c1)OCO2)C(c1ccccc1)c1ccccc1` (centres unmarked) [Compound 109], 22%; for `O=C(Cc1cc2cc(Cl)ccc2s1)NCC(c1ccc(C(F)(F)F)cc1)C(c1ccccc1)c1ccccc1` (centres unmarked) [Compound 145], 54%.
In the case of `O=C(NCC(c1ccc2c(c1)OCO2)C(c1ccccc1)c1ccccc1)c1ccccc1Cl` (centres unmarked) [Compound 129], the “% Inhibition MOCH” value is 41%.
Same read-out and setting: in the case of `CC(C)(C)c1ccc(C(=O)NCC(c2ccc3c(c2)OCO3)C(c2ccccc2)c2ccccc2)cc1` (centres unmarked) [Compound 125] it was 31%; in that of `O=C(Cc1cccs1)NCC(c1ccc(C(F)(F)F)cc1)C(c1ccccc1)c1ccccc1` (centres unmarked) [Compound 135], 31%.
Consider `COc1cc(CC(=O)NCC(c2ccc(C(F)(F)F)cc2)C(c2ccccc2)c2ccccc2)cc(OC)c1` (centres unmarked) [Compound 149], for which the “% Inhibition MOCH” value was found to be 42%.
Regarding `O=C(Cc1ccc(Cl)cc1Cl)NCC(c1ccc2c(c1)OCO2)C(c1ccccc1)c1ccccc1` (centres unmarked) [Compound 112], the “% Inhibition MOCH” value is 36%.
For the compound `Cc1ccccc1C(=O)NCC(c1ccc2c(c1)OCO2)C(c1ccccc1)c1ccccc1` (centres unmarked) [Compound 133], the “% Inhibition MOCH” value is recorded as 46%.
Turning to `O=C(Cc1ccc(Cl)c(Cl)c1)NCC(c1ccc2c(c1)OCO2)C(c1ccccc1)c1ccccc1` (centres unmarked) [Compound 113], the “% Inhibition MOCH” value was found to be 31%.

Still in this test, the particulars now being: topical to mouse ear, 1 mg, one hour after oxazolone challenge, ear biopsy weight at 24 hours.
With `COc1ccccc1CC(=O)NCC(c1ccccc1)C(c1ccccc1)c1ccccc1` (centres unmarked) [Compound 5], the “Oxazolone Ear Swelling (MOCH) % inhibition vs. Vehicle at 1 mg” value is given as 13%.
Regarding `O=C(Cc1ccc(Cl)cc1)NCC(c1ccc2c(c1)OCO2)C(c1ccccc1)c1ccccc1` (centres unmarked) [Compound 98], the “Oxazolone Ear Swelling (MOCH) % inhibition vs. Vehicle at 1 mg” value was determined as 85%.
`Cc1ccc(C(=O)NCC(c2ccccc2)C2c3ccccc3-c3ccccc32)s1` (centres unmarked) [Compound 72]: the “Oxazolone Ear Swelling (MOCH) % inhibition vs. Vehicle at 1 mg” value is 50%.
On the same count and under the same terms, in the case of `O=C(NCC(c1ccccc1)C(c1ccccc1)c1ccccc1)Nc1ccccc1` (centres unmarked) [Compound 50] it was 30%.

The same test, now with this note: topical, mouse ear.
As for `O=C(Cc1ccccc1Cl)NCC(c1ccccc1)C(c1ccc(F)cc1)c1ccc(F)cc1` (centres unmarked) [Compound 16], the “topical antiinflammatory activity in the oxazolone model (in words)” value (shortened to “topical antiinflammatory activity”) was “moderate topical activity”.
Consider `COc1ccccc1CCC(=O)NCC(c1ccccc1)C(c1ccc(F)cc1)c1ccc(F)cc1` (centres unmarked) [Compound 23], for which the “topical antiinflammatory activity” value is listed as “moderate topical activity”.
On to `O=C(Cc1ccc(Cl)cc1)NCC(c1ccc2c(c1)OCO2)C(c1ccccc1)c1ccccc1` (centres unmarked) [Compound 98], for which the “topical antiinflammatory activity” value is reported as “equiactive with hydrocortisone”.
